{"source": "paper PMC9820311", "about": "“Characterization of a Novel Amphiphilic Cationic Chlorin Photosensitizer for Photodynamic Applications” (International Journal of Molecular Sciences, 2022)", "biological_target": "T1, bovine serum albumin (BSA) (Bos taurus, UniProt P02769)", "T1 construct": "gene ALB", "T1 sequence (P02769 25-607)": "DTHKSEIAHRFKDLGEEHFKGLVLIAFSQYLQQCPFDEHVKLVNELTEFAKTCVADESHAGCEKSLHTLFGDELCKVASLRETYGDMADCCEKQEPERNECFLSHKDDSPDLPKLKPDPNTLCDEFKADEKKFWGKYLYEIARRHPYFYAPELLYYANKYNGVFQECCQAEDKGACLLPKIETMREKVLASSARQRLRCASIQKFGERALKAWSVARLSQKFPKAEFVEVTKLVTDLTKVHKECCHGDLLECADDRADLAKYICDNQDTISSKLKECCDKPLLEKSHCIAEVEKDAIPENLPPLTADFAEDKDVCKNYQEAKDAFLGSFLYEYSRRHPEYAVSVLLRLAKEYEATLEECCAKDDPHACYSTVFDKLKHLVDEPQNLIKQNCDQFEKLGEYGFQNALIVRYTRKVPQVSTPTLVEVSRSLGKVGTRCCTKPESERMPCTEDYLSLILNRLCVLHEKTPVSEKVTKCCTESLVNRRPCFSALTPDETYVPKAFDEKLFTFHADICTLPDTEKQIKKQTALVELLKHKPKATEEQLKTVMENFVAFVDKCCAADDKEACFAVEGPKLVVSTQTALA", "experiment": "BSA intrinsic fluorescence quenching titration (Stern-Volmer; λex = […] nm, […] BSA), supported by chlorin fluorescence increase and DLS", "type": "binding", "details": "read-out: BSA intrinsic fluorescence quenching titration (Stern-Volmer); λex = 290 nm, 5 μM (converted)", "data": [{"smiles": "CCC1=C(C)c2cc3[nH]c(cc4nc(c(CC(=O)OC)c5[nH]c(cc1n2)c(C)c5C(=O)NC)[C@@H](CCC(=O)OC/C=C(\\C)CCCC(C)CCCC(C)CCCC(C)C)[C@@H]4C)c(C)c3C(=CC[N+](C)(C)C)C[N+](C)(C)C", "note": "(mixture of isomers) [compound 1, 3(1),3(2)-bis(N,N,N-trimethylaminomethyliodide) chlorin e6 13(1)-N-methylamide-15(2)-methyl,17(3)-phytyl ester]", "values": [{"measurement": "Kd", "result": 2740, "unit": "nM"}]}]}
